Assay [1] has as its target Transitional endoplasmic reticulum ATPase (Homo sapiens, UniProt P55072). The assay is described as follows: biochemical. The format is cell-based.
Description: Inhibition of human full length VCP (2 to 806 residues) expressed in High5 insect cells assessed as reduction in ATPase activity by measuring ADP formation by NADH coupled assay
Assay [2] in a line: Inhibition of cell proliferation of human HCT116 cells after 72 hrs by thermostable firefly luciferase based assay. As to conditions: Homo sapiens, HCT-116, 72 h; read-out: IC50. The format is functional, HCT-116.

In general, pIC50 refers to the IC50 on a negative log10 scale, so that one unit is a factor of ten.

pIC50: −log10 of the molar value.

Sequence of Transitional endoplasmic reticulum ATPase (P55072 whole entry): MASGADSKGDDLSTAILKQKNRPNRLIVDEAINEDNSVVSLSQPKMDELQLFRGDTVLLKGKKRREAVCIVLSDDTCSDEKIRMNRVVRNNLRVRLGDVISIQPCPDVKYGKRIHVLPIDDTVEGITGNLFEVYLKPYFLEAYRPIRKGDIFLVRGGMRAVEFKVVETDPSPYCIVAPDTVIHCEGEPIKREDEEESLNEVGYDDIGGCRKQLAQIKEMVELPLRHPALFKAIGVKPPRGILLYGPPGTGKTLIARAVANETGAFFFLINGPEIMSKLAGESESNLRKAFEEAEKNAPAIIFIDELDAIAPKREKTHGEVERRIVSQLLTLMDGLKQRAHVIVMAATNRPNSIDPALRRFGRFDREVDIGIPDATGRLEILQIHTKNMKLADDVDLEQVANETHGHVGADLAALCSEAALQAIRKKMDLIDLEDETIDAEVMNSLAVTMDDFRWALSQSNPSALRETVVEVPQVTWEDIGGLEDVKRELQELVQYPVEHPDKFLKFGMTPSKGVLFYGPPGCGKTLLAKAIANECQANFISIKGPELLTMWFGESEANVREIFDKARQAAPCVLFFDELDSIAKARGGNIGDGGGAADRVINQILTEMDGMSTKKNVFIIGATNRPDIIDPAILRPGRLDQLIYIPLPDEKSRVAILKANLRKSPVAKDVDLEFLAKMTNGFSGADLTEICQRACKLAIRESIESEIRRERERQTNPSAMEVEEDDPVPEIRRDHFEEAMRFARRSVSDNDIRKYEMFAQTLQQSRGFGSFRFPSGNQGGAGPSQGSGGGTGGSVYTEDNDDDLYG

On to `CS(=O)(=O)NC(=O)[C@H]1CC[C@H](CNc2nc(NCc3ccccc3)cc(-c3ccccc3)n2)CC1`, for which the pIC50 in assay [1] is 6.88; in assay [2], less than 4.70.
`COc1cccc(-c2cc(NCc3ccccc3)nc(NC[C@H]3CC[C@H](C(N)=O)CC3)n2)c1`: the negative logarithm of the IC50 (pIC50) in assay [1] is 6.83; in assay [2], 5.18.
On to `NC(=O)[C@H]1CC[C@H](CNc2nc(NCc3ccccc3)cc(-c3cc4ccccc4o3)n2)CC1`, for which the negative logarithm of the IC50 (pIC50) in assay [1] is 7.21; in assay [2], 5.33.
For the compound `NC(=O)[C@H]1CC[C@H](CNc2nc(NCc3ccccc3)cc(-c3cccc(C(F)(F)F)c3)n2)CC1`, the negative logarithm of the IC50 (pIC50) is 6.63 in assay [1] and 5.10 in assay [2].
As for `NC(=O)[C@H]1CC[C@H](CNc2nc(NCc3ccccc3)cc(-c3ccsc3)n2)CC1`, the negative logarithm of the IC50 (pIC50) is 6.34 in assay [1] and 5.13 in assay [2].
With `NC(=O)[C@H]1CC[C@H](CNc2nc(NCc3ccccc3)cc(-c3ccoc3)n2)CC1`, the negative logarithm of the IC50 (pIC50) in assay [1] was 6.31; in assay [2], 5.06.
On to `NC(=O)[C@H]1CC[C@H](CNc2nc(NCc3ccccc3)cc(-c3cccc(O)c3)n2)CC1`, for which the pIC50 in assay [1] was 6.97; in assay [2] it was less than 5.00.
Turning to `NC(=O)[C@H]1CC[C@H](CNc2nc(NCc3ccccc3)cc(-c3ccc(C(F)(F)F)cc3)n2)CC1`, the pIC50 was 6.65 in assay [1] and 5.12 in assay [2].
As for `O=C(NS(=O)(=O)C(F)(F)F)[C@H]1CC[C@H](CNc2nc(NCc3ccccc3)cc(-c3ccccc3)n2)CC1`, the negative-log IC50 (pIC50) in assay [1] was 6.58; in assay [2], less than 4.70.
Turning to `CNC(=O)[C@H]1CC[C@H](CNc2nc(NCc3ccccc3)cc(-c3ccccc3)n2)CC1`, the negative logarithm of the IC50 (pIC50) in assay [1] is 6.35; in assay [2], 5.03.
Consider `Cc1cccc(-c2cc(NCc3ccccc3)nc(NC[C@H]3CC[C@H](C(N)=O)CC3)n2)c1`, for which the pIC50 in assay [1] was 6.74; in assay [2], 5.38.
Turning to `NC(=O)[C@H]1CC[C@H](CNc2nc(NCc3ccccc3)cc(-c3cccc(CO)c3)n2)CC1`, the values for the negative-log IC50 (pIC50) in assay [1] and in assay [2] were 6.87 and less than 5.00, respectively.
The like results for `NC(=O)[C@H]1CC[C@H](CNc2nc(NCc3ccccc3)cc(-c3ccc(CO)cc3)n2)CC1` were, in that order, 7.05 and 5.10.
Take `CCOc1ccc(-c2cc(NCc3ccccc3)nc(NC[C@H]3CC[C@H](C(N)=O)CC3)n2)cc1`: the results for the pIC50 in assay [1] and in assay [2] were 6.61 and 5.65, respectively.
Turning to `NC(=O)[C@H]1CC[C@H](CNc2nc(NCc3ccccc3)cc(-c3ccc(F)cc3)n2)CC1`, the results for the negative logarithm of the IC50 (pIC50) in assay [1] and in assay [2] were 6.52 and less than 5.00, respectively.

(Values after ChEMBL document CHEMBL3352358, “Discovery of 2-(cyclohexylmethylamino)pyrimidines as a new class of reversible valosine containing protein inhibitors” (J Med Chem, 2014).)
